Experimental findings from US12195424B2, “Antibiotic compounds” (The General Hospital Corporation, priority 2017, dated 2025) are described below.

Series [1] has as its system MRSA MW2 persisters. The series can be described thus: Persister killing assay. The format is cell-based, S. aureus. Particulars: MRSA persisters, in words. The procedure:
Persister killing assay. […] Persistency of stationary-phase S. aureus VRS1 was evaluated by treating with 100×MIC daptomycin and 100×MIC linezolid, because the strain is resistant to vancomycin, gentamicin, ciprofloxacin, and rifampicin. We prepared persister cells of the 13 S. aureus strains by growing cultures overnight to stationary phase at 37° C. at 225 rpm. The overnight cultures were washed three times with PBS and diluted to ˜5×10^7 ? CFU/ml with the same buffer. 2 ml of the persister suspension containing appropriate concentrations of antibiotics was added to the wells of a 96-well assay block (Corning Costar 3960) and incubated at 37° C., with shaking at 225 rpm. At specific times, 400 μl samples were removed and washed once with PBS to remove the antibiotic. The samples were serially diluted 10^5 fold with PBS and spot-plated onto TSA plates. After incubating the plates overnight (˜18 h) at 37° C., the colonies were counted to enumerate the number of cells. These experiments were conducted in triplicate.

For series [2], the system named is S. aureus MW2. The series can be described thus: Deep-seated mouse thigh infection model. In kind it is in vivo, mice. Particulars: every 12 h for 3 days, p<0.001. The procedure: Deep-seated mouse thigh infection model for evaluating drug efficacy. A previously described protocol to mimic a chronic, deep-tissue infection was used with modifications. Six-week-old female CD1 ICR outbred mice (20-25 g) were obtained from Charles River Laboratories (Wilmington, MA, USA). To make mice neutropenic, 150 mg/kg and 100 mg/kg of cyclophosphamide were administered via i.p. injection at 4 days and 1 day before infection, respectively. On the day of infection, ˜10^5 cells of stationary-phase S. aureus MW2 suspended in 50 μl of saline were injected to the right thigh of each mouse. To test the efficacy of CD437, the compound was dissolved in a 1:1 solution of Kolliphor EL (Sigma-Aldrich, St Louis, MO, USA) and ethanol and then diluted 1:10 in saline to a final concentration of […]. […] At 24 h post-infection, groups of mice (n=10) were treated with 30 mg/kg gentamicin subcutaneously (s.c.), 25 mg/kg vancomycin i.p., 20 mg/kg CD437 i.p., or a combination of 20 mg/kg CD437 i.p. and 30 mg/kg gentamicin s.c. every 12 h for 3 days. Control mice were injected with 200 μl of 10% Kolliphor EL/ethanol in saline i.p. every 12 h for 3 days. For testing the efficacy of Analog 2, the compound was dissolved in a 1:1 solution of Kolliphor EL (Sigma-Aldrich, St Louis, MO, USA) and ethanol and then diluted 1:10 in saline to a final concentration of 4 mg/ml. […] Serum was analyzed for alanine aminotransferase and urea nitrogen content with commercially available kits, following the manufacturer's protocol (Pointe Scientific, Canton, MI, USA). […] The bacterial burden was recorded as CFU/g tissue. A sample size of 10 mice per group was calculated for a single-tailed power analysis using a standard deviation based on our historical data and the literature in consultation with the Rhode Island Hospital Biostatistics Core. […] Statistical significance among each group was analyzed by one-way ANOVA with post-hoc Tukey test using PASW Statistics 18 (SPSS Inc. Chicago, IL, USA) and GraphPad Prism 7 (GraphPad Software, La Jolla, CA, USA).

The nature of series [3]: Maximum tolerated dose. The format is in vivo. Particulars: mice. The procedure: Maximum tolerated dose. Six-week-old female CD1 ICR outbred mice (20-25 g) were obtained from Charles River Laboratories (Wilmington, MA, USA). Analog 2 was dissolved in a 1:1 solution of Kolliphor EL (Sigma-Aldrich, St Louis, MO, USA) and ethanol and then diluted 1:10 in saline to a final concentration of 4 mg/ml. Groups of mice (n=6) were treated with 10, 20, 40, 80 mg/kg Analog 2 i.p. or vancomycin (25 mg/kg) every 12 h for 3 days. Control mice were injected with 400 μl of 10% Kolliphor EL/ethanol in saline i.p. every 12 h for 3 days. Mice were closely monitored until they were euthanized at 72 h from the first infection. After euthanizing mice, blood was collected by cardiac puncture. All samples were stored at 4° C. until for analysis. Serum was analyzed for alanine aminotransferase and urea nitrogen content with commercially available kits, following the manufacturer's protocol (Pointe Scientific, Canton, MI, USA). No statistical methods were used to predetermine samples size. The experiments were not randomized, and investigators were not blinded to allocation during experiments and outcome assessment. This study and all experimental protocols were approved by the Rhode Island Hospital Institutional Animal Care and Use Committee (RIH IACUC) and conducted in accordance with the Animal Welfare Act and National Institutes of Health guidelines for animal care and use. Statistical significance among each group was analyzed by one-way ANOVA with post-hoc Tukey test using PASW Statistics 18 (SPSS Inc. Chicago, IL, USA) and GraphPad Prism 7 (GraphPad Software, La Jolla, CA, USA).

The mark [4] stands for this setting: every 12 h for 3 days, Analog 2 10-80 mg/kg i.p., vancomycin 25 mg/kg i.p., P>0.7.

Regarding `OCc1ccc2cc(-c3ccc(O)c(C45CC6CC(CC(C6)C4)C5)c3)ccc2c1` [Analog 2, 2-(adamantan-1-yl)-4-(6-(hydroxymethyl)naphthalen-2-yl)phenol], in series [1], the anti-persister activity result was “retained bacterial activity against MRSA persisters”. The “decrease in bacterial burden” value in series [2] (40 mg/kg i.p. in combination with 30 mg/kg gentamicin s.c.) is listed as about 1 log; in series [2] (80 mg/kg i.p. alone), about 1 log; in series [2] (80 mg/kg i.p. in combination with 30 mg/kg gentamicin s.c.) it was about 2 log. Further, the “alanine aminotransferase (ALT) vs. control” value in series [3] (setting [4]) is reported as “lack of significant differences”. Also, the “blood urea nitrogen (BUN) vs. control” value in series [3] (setting [4]) is reported as “lack of significant differences”. Further, the “hepatic or renal toxicity” value in series [3] (up to 80 mg/kg i.p. (highest tested dose) every 12 h for 3 days) is given as “no detectable”.
